Source: patent publication US20170304359A1, “ORAL IODINE DOSAGE FORM” (priority 2016, published 2017)

How the values were obtained:
[1] = system: MCF7, MDA-MB231, MCF10A, and primary cells; type: cell-based, human
[2] = system: breast cancer and fibrocystic cell lines; test: qRT-PCR gene expression analysis; type: cell-based, human; settings: molecular iodine treatment
Protocol: An in vitro study was performed to assess the effect of molecular iodine in breast cancer and fibrocystic breast cell lines relative to the effects in human mammary epithelial cells (HMEC)(“primary cells”). The study measured gene expression for key markers in each of the cell lines following in vitro addition to the cells of cell media mixtures that comprised iodine species.
As mentioned in the previous paragraph, each of the four cell lines described in the previous paragraph was added to a sample of each of the six cell media mixtures CM1 to CM6. As an untreated control, one sample for each cell line was mixed with media only. Real-time reverse transcription polymerase chain reaction (qRT-PCR) was used to measure several key mRNA markers for apoptosis and cell growth in breast tissue for each combination of cell line and cell media mixture. The measured markers for cell growth were Cyclin D1, Cyclin E1, Cyclin B1, CDK2, and CDKN1B. The measured markers for apoptosis were BCL2 and Caspase 3. Cyclin D1 is required for progression through the G1 phase of the cell cycle. Cyclin E1 is required for cell cycle G1/S transition. Cyclin B1 is involved in the early events of mitosis, such as chromosome condensation, nuclear envelop breakdown, and spindle pole assembly. CDK2 is required for the transition from G1 to S phase and binding with Cyclin A is required to progress through the S phase. CDKN1B binds to and prevents the activation of cyclin E-CDK2 or Cyclin D-CDK4 complexes, and thus controls the cell cycle progression at G1. BCL2 plays an important role in promoting cellular survival and inhibiting the actions of pro-apoptotic proteins. Caspase 3 plays a central role in the execution phase of cell apoptosis. […] Table 4 presents the data normalized to the corresponding data for the primary cells when added to CM6.
BCL-2, an inhibitor of cell death, was increased, while expression of caspase-3 was decreased.

[3] = system: fibrocystic breast condition; settings: about 3 to about 12 mg of molecular iodine per day; clinical trials (Kessler 2004; Ghent 1993); cited from earlier work
[4] = Aceves et al. 2013; cited from earlier work
[5] = Aceves et al. 2013; cited from earlier work; remark: listed apart in the source

Structure (SMILES) | selectivity for apoptosis and cell proliferation between cancerous or fibrocystic cells and healthy human mammary epithelial cells [1] | susceptibility of breast cancer cell lines compared to primary cells (cell death) ([1]; 24 hours, FIG. 3) | effects on cell growth in both breast cancer and FBC [2] | BCL-2 expression ([2]; quantitative RT-PCR) | Cyclin B expression levels ([2]; quantitative RT-PCR) | expression of caspase-3 ([2]; quantitative RT-PCR) | expression of cell cycle genes controlling G1-S phase transition ([2]; quantitative RT-PCR) | expression of nuclear hormone receptor PPAR-α ([2]; quantitative RT-PCR) | expression of nuclear hormone receptor PPAR-γ ([2]; quantitative RT-PCR) | treatment of fibrocystic breast condition [3] | difference in uptake in the thyroid between molecular iodine and iodide [4] | uptake difference between molecular iodine and iodide in the breast [5]
[I-].[K+] [CM3, potassium iodide, reference compound] | not present |  |  |  |  |  |  |  |  |  |  | 
II [molecular iodine] |  | more susceptible | potent inhibitory effects | increased | No significant changes | decreased | largely up-regulated | up-regulated | up-regulated | effective | 3-4 fold | small uptake difference
